Data published in patent US11434232B2, “ATR inhibitor and application thereof” (WUXI BIOCITY BIOPHARMACEUTICS CO., LTD., priority 2018, dated 2022).

What was measured:
human ATR kinase = human ATR kinase (Homo sapiens (Human), UniProt Q13535); assay: In vitro evaluation of inhibitory activity on human ATR kinase (HTRF, ATR/ATRIP(h), GST-cMyc-p53 substrate); assay type: biochemical; details: 50 nM GST-cMyc-p53, 30 min room temperature
Description: IC50 values were determined to evaluate the inhibitory activity of the tested compounds on human ATR kinase.
ATR/ATRIP(h) was incubated in assay buffer containing 50 nM GST-cMyc-p53 and Mg/ATP (according to concentration required). The reaction was initiated by adding Mg/ATP mixture. After incubating for 30 min at room temperature, a stop solution containing EDTA to was added to terminate the reaction. Finally, detecting buffer containing d^2-labeled anti-GST monoclonal antibody and europium-labeled anti-phospho Ser15 antibody against phosphorylated p^53 were added. Then the plate was read in time-resolved fluorescence mode and homogeneous time resolution was performed.
The fluorescence (HTRF) signal was determined according to the formula HTRF=10000×(Em665 nm/Em620 nm).
IC50 data was analyzed using XLFit version 5.3 (ID Business Solutions). Non-linear regression analysis was used to fit the sigmoidal dose response (variable slope) curve.

tumor cell line LoVo = assay: In vitro cell viability test (CellTiter-Glo), LoVo cell proliferation inhibition; assay type: cell-based; details: Homo sapiens
Description: In this experiment, inhibitory effect of the compounds on cell proliferation was investigated by testing influence on cell viability in vitro in tumor cell line LoVo.
CellTiter-Glo Luminescence Cell Viability Test
The following protocols were performed according to instruction of PromegaCellTiter-Glo Luminescence cell viability test Kit (Promega-G7573). • (1) Thawing CellTiter-Glo buffer and allowing it to acclimate to room temperature. • (2) Allowing CellTiter-Glo substrate to acclimate to room temperature. • (3) Adding CellTiter-Glo buffer to a bottle of CellTiter-Glo substrate to dissolve the substrate to prepare CellTiter-Glo working solution. • (4) Vortexing slowly to full dissolution. • (5) Removing the cell culture plate and balancing it to room temperature for 30 min. • (6) Adding 50 μL (equivalent to half volume of cell culture medium in each well) of CellTiter-Glo working solution to each well, wrapping the cell plate with aluminum foil to protect from light. • (7) Shaking the culture plate on an orbital shaker for 2 min to induce cell lysis. • (8) Placing the culture plate at room temperature for 10 min to stabilize the luminescence signal. • (9) Detecting the luminescence signal on SpectraMax i3× of Molecular Devices plate reader. Data Analysis
The following formula was used to calculate the inhibition rate of the test compound (Inhibition rate, IR): IR(%)=(1−(RLU Compound−RLU Blank control)/(RLU Vehicle control−RLU Blank control))*100%.
The inhibition rates of different concentrations of compounds were calculated in Excel, and GraphPad Prism software was used to make the inhibition curve and calculate relevant parameters, including the minimum inhibition rate, the maximum inhibition rate and IC50.

[1] = Pharmacokinetic properties in vivo in female Balb/c Nude mice; parameters: species or system mouse
Description: Experimental method: The purpose of this study was to determine the pharmacokinetic parameters of the compounds and calculate the oral bioavailability in female Balb/c Nude mice.
The project involved 6 female Balb/c Nude mice. 3 mice were administered intravenously at a dose of 1 mg/kg, and plasma samples were collected at 0 h (before administration) and 0.0833, 0.25, 0.5, 1, 2, 4, 6, 8 and 24 h after administration, other 3 mice were given by oral gavage at a dose of 10 mg/kg or 25 mg/kg, and plasma samples were collected at 0 h (before dosing) and 0.5, 1, 2, 3, 4, 6, 8, 24 h after administration. Then LC/MS/MS analysis was performed for the collected samples and data was collected. The collected analysis data was calculated for relevant pharmacokinetic parameters with Phoenix WinNonlin 6.2.1 software.

[2] = mouse, plasma, 10 mg/kg oral gavage

Chain of human ATR kinase (Q13535 whole entry): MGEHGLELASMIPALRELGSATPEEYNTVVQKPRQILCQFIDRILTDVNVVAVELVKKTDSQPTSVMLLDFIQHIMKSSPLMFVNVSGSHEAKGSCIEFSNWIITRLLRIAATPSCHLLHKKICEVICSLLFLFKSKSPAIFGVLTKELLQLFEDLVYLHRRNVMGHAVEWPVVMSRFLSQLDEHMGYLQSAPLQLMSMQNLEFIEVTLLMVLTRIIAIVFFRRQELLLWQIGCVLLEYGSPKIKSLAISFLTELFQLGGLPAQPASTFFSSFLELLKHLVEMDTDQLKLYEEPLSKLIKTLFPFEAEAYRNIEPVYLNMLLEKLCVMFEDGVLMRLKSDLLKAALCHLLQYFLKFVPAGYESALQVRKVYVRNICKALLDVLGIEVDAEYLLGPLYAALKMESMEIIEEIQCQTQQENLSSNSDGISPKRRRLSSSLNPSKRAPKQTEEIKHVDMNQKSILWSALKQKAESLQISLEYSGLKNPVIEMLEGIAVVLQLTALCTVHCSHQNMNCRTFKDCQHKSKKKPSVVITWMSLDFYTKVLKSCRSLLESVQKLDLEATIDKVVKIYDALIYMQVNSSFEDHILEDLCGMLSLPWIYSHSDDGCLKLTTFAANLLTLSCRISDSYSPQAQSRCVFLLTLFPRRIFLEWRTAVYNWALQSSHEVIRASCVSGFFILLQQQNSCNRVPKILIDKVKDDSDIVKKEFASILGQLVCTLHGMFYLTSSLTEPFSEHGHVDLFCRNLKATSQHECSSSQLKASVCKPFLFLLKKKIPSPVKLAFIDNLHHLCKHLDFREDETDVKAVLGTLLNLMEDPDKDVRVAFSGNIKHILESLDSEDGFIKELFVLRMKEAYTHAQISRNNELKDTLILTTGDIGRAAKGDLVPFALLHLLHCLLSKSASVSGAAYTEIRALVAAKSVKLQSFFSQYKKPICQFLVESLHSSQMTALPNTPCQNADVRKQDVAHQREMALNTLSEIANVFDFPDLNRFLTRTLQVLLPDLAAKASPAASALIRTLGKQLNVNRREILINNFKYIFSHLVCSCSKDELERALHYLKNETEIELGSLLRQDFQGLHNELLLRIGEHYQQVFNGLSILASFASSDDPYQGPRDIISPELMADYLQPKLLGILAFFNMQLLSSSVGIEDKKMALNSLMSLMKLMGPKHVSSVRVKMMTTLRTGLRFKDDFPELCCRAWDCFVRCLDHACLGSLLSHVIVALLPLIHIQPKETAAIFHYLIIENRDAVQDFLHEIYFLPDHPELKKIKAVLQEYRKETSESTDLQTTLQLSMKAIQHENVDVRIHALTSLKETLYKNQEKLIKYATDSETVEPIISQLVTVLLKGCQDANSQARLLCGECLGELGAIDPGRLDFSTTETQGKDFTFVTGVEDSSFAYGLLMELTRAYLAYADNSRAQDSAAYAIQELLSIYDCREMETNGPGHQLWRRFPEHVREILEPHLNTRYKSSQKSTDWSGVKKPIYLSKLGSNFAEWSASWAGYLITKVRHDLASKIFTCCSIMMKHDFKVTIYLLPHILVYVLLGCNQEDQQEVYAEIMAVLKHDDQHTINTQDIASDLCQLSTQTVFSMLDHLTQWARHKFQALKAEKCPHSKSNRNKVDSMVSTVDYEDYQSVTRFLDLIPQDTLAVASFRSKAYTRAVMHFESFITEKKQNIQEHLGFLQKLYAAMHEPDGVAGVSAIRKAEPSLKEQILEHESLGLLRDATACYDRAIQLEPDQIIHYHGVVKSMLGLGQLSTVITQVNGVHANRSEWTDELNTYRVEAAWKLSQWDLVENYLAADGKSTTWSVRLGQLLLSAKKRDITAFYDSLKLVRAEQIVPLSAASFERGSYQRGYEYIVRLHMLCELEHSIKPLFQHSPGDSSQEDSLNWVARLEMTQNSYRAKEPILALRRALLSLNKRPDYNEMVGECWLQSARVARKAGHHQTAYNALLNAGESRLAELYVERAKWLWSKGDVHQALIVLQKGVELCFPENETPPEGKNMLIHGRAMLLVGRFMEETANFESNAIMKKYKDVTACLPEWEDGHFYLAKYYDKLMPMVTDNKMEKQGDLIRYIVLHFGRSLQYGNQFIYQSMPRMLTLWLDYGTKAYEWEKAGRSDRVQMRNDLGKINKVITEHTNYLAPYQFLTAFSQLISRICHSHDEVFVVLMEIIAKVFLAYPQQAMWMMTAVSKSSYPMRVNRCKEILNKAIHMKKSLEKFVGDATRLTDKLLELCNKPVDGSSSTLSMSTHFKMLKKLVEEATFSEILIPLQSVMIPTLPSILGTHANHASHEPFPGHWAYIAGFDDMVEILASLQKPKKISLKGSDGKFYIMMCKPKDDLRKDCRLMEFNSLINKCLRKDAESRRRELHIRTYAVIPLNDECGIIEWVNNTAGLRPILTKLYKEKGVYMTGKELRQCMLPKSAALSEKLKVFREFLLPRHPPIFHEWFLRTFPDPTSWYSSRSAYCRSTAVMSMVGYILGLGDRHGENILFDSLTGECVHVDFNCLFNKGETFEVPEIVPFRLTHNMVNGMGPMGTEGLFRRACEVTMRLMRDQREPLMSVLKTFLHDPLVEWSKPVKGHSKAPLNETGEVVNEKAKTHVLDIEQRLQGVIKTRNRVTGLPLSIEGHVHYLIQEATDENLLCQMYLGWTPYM
Chain of human ATR kinase (Q8WXE1 whole entry partner): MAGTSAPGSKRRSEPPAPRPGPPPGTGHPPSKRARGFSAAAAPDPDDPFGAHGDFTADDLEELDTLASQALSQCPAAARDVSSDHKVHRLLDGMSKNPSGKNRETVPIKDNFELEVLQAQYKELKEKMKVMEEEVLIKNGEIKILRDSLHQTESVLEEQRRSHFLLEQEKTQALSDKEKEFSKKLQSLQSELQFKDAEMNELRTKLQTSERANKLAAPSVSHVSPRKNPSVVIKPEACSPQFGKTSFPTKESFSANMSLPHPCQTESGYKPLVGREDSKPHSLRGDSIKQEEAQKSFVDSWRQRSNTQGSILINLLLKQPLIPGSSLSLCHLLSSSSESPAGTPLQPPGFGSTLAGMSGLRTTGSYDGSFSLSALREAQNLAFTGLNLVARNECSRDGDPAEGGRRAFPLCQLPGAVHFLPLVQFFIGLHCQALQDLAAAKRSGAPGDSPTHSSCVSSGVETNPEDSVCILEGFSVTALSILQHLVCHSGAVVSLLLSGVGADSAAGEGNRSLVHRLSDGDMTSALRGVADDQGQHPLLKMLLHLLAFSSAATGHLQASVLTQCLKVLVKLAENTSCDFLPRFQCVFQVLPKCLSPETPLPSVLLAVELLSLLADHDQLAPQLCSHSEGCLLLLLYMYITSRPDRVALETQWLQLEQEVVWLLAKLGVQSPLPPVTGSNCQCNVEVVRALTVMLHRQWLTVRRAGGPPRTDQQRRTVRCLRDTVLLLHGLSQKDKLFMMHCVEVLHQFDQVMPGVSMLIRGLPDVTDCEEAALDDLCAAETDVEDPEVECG

| SMILES | IC50 (human ATR kinase) | other results |
| --- | --- | --- |
| Cc1nnn(C)c1-c1cc(N2CCOC[C@H]2C)nc(-c2cc(CO)cc3[nH]ccc23)n1 [WX37] | 16 nM |  |
| Cc1cnn(C)c1-c1cc(-c2cc(F)cc3[nH]ccc23)nc(N2CCOC[C@H]2C)n1 [WX10] | 80 nM |  |
| Cc1n[nH]c(C)c1-c1cc(-c2ccnc3[nH]ccc23)nc(N2CCOC[C@H]2C)c1 [WX32] | 35 nM |  |
| Cc1cc(-c2cc(N3CCOC[C@H]3C)nc(-c3cccc4[nH]ccc34)n2)n(C)n1 [WX03] | 72 nM |  |
| Cc1c(-c2cc(N3CCOC[C@H]3C)nc(-c3ccnc4[nH]ccc34)n2)cnn1C [WX26] | 123 nM |  |
| Cc1cc(-c2nc(-c3c(C)nnn3C)cc(N3CCOC[C@H]3C)n2)c2cc[nH]c2c1 [WX52] | 20 nM |  |
| C[C@@H]1COCCN1c1cc(C2([S@](C)(=N)=O)CC2)nc(-c2ccnc3[nH]ccc23)n1 [AZD6738, reference compound] |  | IC50 (tumor cell line LoVo): 820 nM |
| Cc1nnn(C)c1-c1cc(N2CCOC[C@H]2C)nc(-c2cc(F)cc3[nH]ccc23)n1 [WX36] | 14 nM |  |
| Cc1cnn(C)c1-c1cc(N2CCOC[C@H]2C)nc(-c2cc(C(=O)O)cc3[nH]ccc23)n1 [WX53] | 83 nM |  |
| Cc1nn(C)c(C)c1-c1cc(N2CCOC[C@H]2C)nc(-c2ccnc3[nH]ccc23)n1 [WX24] | 18 nM |  |
| Cc1nnc(C)n1-c1cc(-c2cc(F)cc3[nH]ccc23)nc(N2CCOC[C@H]2C)c1 [WX54] | 27 nM |  |
| Cc1nnc(C)n1-c1cc(-c2ccnc3[nH]ccc23)nc(N2CCOC[C@H]2C)c1 [WX48] | 105 nM |  |
| COc1cc(C)c(-c2cc(N3CCOC[C@H]3C)nc(-c3ccnc4[nH]ccc34)n2)cn1 [WX40] | 15 nM |  |
| Cc1nnc(C)n1-c1cc(-c2cc(F)cc3[nH]ccc23)nc(N2CCOC[C@H]2C)n1 [WX56] | 46 nM |  |
| C[C@@H]1COCCN1c1cc(-c2cccc3[nH]ccc23)nc(-c2ccnn2C)c1 [WX01] | 119 nM |  |
| Cc1cnn(C)c1-c1cc(-c2ccnc3[nH]ccc23)nc(N2CCOC[C@H]2C)n1 [WX07] | 75 nM |  |
| Cc1cnn(C)c1-c1cc(N2CCOC[C@H]2C)nc(-c2cccc3[nH]ccc23)n1 [WX13] | 24 nM |  |

| SMILES | IC50 (human ATR kinase) | other results |
| --- | --- | --- |
| CCn1nccc1-c1cc(N2CCOC[C@H]2C)nc(-c2cccc3[nH]ccc23)n1 [WX14] | 50 nM |  |
| Cc1cc(-c2cc(N3CCOC[C@H]3C)nc(-c3cc(F)cc4[nH]ccc34)n2)n(C)n1 [WX20] | 69 nM |  |
| Cc1cc(-c2cc(N3CCOC[C@H]3C)nc(-c3ccnc4[nH]ccc34)n2)n(C)n1 [WX16] | 97 nM |  |
| Cc1nnc(C)n1-c1cc(-c2cccc3[nH]ccc23)nc(N2CCOC[C@H]2C)c1 [WX57] | 28 nM |  |
| C[C@@H]1COCCN1c1nc(-c2ccnc3[nH]ccc23)cc(-c2ccnn2C)n1 [WX06] | 245 nM |  |
| Cc1cnn(C)c1-c1cc(N2CCOC[C@H]2C)nc(-c2cc(F)cc3[nH]ccc23)n1 [WX21] | 27 nM |  |
| Cc1cnn(C)c1-c1cc(N2CCOC[C@H]2C)nc(-c2ccnc3[nH]ccc23)n1 [WX17] | 12 nM |  |
| Cc1cnn(C)c1-c1cc(-c2cccc3[nH]ccc23)nc(N2CCOC[C@H]2C)n1 [WX12] | 41 nM |  |
| CCn1nccc1-c1cc(-c2ccnc3[nH]ccc23)nc(N2CCOC[C@H]2C)n1 [WX08] | 126 nM |  |
| Cc1nnc(C)n1-c1cc(-c2cccc3[nH]ccc23)nc(N2CCOC[C@H]2C)n1 [WX55] | 20 nM |  |
| CCn1nccc1-c1cc(N2CCOC[C@H]2C)nc(-c2ccnc3[nH]ccc23)n1 [WX18] | 83 nM |  |
| C[C@@H]1COCCN1c1cc(-c2cnn(C)c2CO)nc(-c2ccnc3[nH]ccc23)n1 [WX29] | 96 nM |  |
| C[C@@H]1COCCN1c1nc(-c2cc(F)cc3[nH]ccc23)cc(-c2ccnn2C)n1 [WX09] | 369 nM |  |
| Cc1nnn(C)c1-c1cc(N2CCOC[C@H]2C)nc(-c2ccnc3[nH]ccc23)n1 [WX34] | 69 nM | AUC(0-t) ([1]; mouse, plasma, 1 mg/kg IV): 0.787 µM·h; clearance ([1]; mouse, plasma, 1 mg/kg IV): 53.9 mL/min/kg; half-life ([1]; mouse, plasma, 1 mg/kg IV): 73.2 min; C0 ([1]; mouse, plasma, 1 mg/kg IV, drug concentration at 0 min): 1260 nM; Vd ([1]; mouse, plasma, 1 mg/kg IV, read-out: Vdss): 3.72 L/kg; AUC(0-t) [1, 2]: 5.68 µM·h; Cmax [1, 2]: 2860 nM; half-life [1, 2]: 69.6 min; F ([1]; oral bioavailability, 10 mg/kg oral vs 1 mg/kg IV): 71.7% |
| Cc1nnn(C2CC2)c1-c1cc(N2CCOC[C@H]2C)nc(-c2cc(CO)cc3[nH]ccc23)n1 [WX49] | 26 nM |  |
| Cc1nnn(C)c1-c1cc(N2CCOC[C@H]2C)nc(-c2cccc3[nH]ccc23)n1 [WX35] | 19 nM |  |

Second part, led by results:

| IC50 (human ATR kinase) | SMILES | other results |
| --- | --- | --- |
| 35 nM | Cc1noc(C)c1-c1cc(-c2ccnc3[nH]ccc23)nc(N2CCOC[C@H]2C)c1 [WX30] |  |
| 32 nM | Cc1noc(C)c1-c1cc(N2CCOC[C@H]2C)nc(-c2cc(CO)cc3[nH]ccc23)n1 [WX51] |  |
| 92 nM | Cc1nn(C)cc1-c1cc(N2CCOC[C@H]2C)nc(-c2ccnc3[nH]ccc23)n1 [WX25] |  |
| 191 nM | CCn1nccc1-c1cc(-c2cc(F)cc3[nH]ccc23)nc(N2CCOC[C@H]2C)n1 [WX11] |  |
| 65 nM | CCn1nccc1-c1cc(N2CCOC[C@H]2C)nc(-c2cc(F)cc3[nH]ccc23)n1 [WX22] |  |
| 39 nM | Cc1cnn(C)c1-c1cc(-c2ccnc3[nH]ccc23)nc(N2CCOC[C@H]2C)c1 [WX31] |  |
| 65 nM | COCc1cnn(C)c1-c1cc(N2CCOC[C@H]2C)nc(-c2ccnc3[nH]ccc23)n1 [WX43] |  |
| 47 nM | Cc1noc(C)c1-c1cc(N2CCOC[C@H]2C)nc(-c2ccnc3[nH]ccc23)n1 [WX28] |  |
| 78 nM | Cc1nnn(C)c1-c1cc(-c2cc(CO)cc3[nH]ccc23)nc(N2CCOC[C@H]2C)c1 [WX38] |  |
| 78 nM | Cc1nc(F)ccc1-c1cc(N2CCOC[C@H]2C)nc(-c2ccnc3[nH]ccc23)n1 [WX41] |  |
| 115 nM | Cc1n[nH]c(C)c1-c1cc(N2CCOC[C@H]2C)nc(-c2ccnc3[nH]ccc23)n1 [WX23] |  |
| 198 nM | C[C@@H]1COCCN1c1cc(-c2ccnn2C)cc(-c2ccnc3[nH]ccc23)n1 [WX33] |  |
| 65 nM | Cc1ncn(C)c1-c1cc(N2CCOC[C@H]2C)nc(-c2ccnc3[nH]ccc23)n1 [WX44] |  |
| 123 nM | C[C@@H]1COCCN1c1cc(-c2cn(C)nc2C(F)(F)F)nc(-c2ccnc3[nH]ccc23)n1 [WX27] |  |
| 53 nM | CCn1nccc1-c1cc(-c2cccc3[nH]ccc23)nc(N2CCOC[C@H]2C)n1 [WX05] |  |
| 72 nM | C[C@@H]1COCCN1c1cc(-c2ccnn2C)nc(-c2cccc3[nH]ccc23)n1 [WX02] |  |
| 42 nM | Cc1nnn(C)c1-c1cc(-c2ccnc3[nH]ccc23)nc(N2CCOC[C@H]2C)c1 [WX39] |  |
| 64 nM | Cc1nnn(C2CC2)c1-c1cc(N2CCOC[C@H]2C)nc(-c2ccnc3[nH]ccc23)n1 [WX47] | IC50 (tumor cell line LoVo): 760 nM |
| 91 nM | C[C@@H]1COCCN1c1nc(-c2cccc3[nH]ccc23)cc(-c2ccnn2C)n1 [WX04] |  |
| 81 nM | C[C@@H]1COCCN1c1cc(-c2ccnn2C)nc(-c2cc(F)cc3[nH]ccc23)n1 [WX19] |  |
